How the values were obtained:
Assay in all cases: Test B pre-/postemergence
Format in all cases: in vivo
Set-up in all cases: key: 0 is no effect; 10 is complete control
[1] = tested on: giant foxtail (Setaria faberii)
Excerpt: (§1) Seeds of bedstraw (Galium aparine), blackgrass (Alopecurus myosuroides), broadleaf signalgrass (Brachiaria decumbens), cocklebur (Xanthium strumarium), corn (Zea mays), crabgrass (Digitaria sanguinalis), giant foxtail (Setaria faberii), lambsquarters (Chenopodium album), momingglory (Ipomoea hederacea), pigweed (Amaranthus retroflexus), rape (Brassica napus), soybean (Glycine max), sugar beet (Beta vulgaris), velvetleaf (Abutilon theophrasti), wheat (Triticum aestivum), wild oat (Avena fatua) and purple nutsedge (Cyperus rotundus) tubers were planted and treated preemergence with test chemicals formulated in a non-phytotoxic solvent mixture which included a surfactant.
(§2) At the same time, these crop and weed species were also treated with postemergence applications of test chemicals formulated in the same manner. Plants ranged in height from 2 to 18 cm (1- to 4-leaf stage) for postemergence treatments. Plant species in the flood test consisted of rice (Oryza sativa), smallflower flatsedge (Cyperus difformis), duck salad (Heteranthera limosa) and bamyardgrass (Echinochloa crus-galli) grown to the 2-leaf stage for testing. Treated plants and controls were maintained in a greenhouse for twelve to sixteen days, after which all species were compared to controls and visually evaluated. Plant response ratings, summarized in Table B, are based on a scale of 0 to 10 where 0 is no effect and 10 is complete control. A dash (−) response means no test result.

[2] = tested on: purple nutsedge (Cyperus rotundus)
Excerpt: as §1, §2

[3] = tested on: wheat (Triticum aestivum)
Excerpt: as §1, §2

[4] = tested on: bedstraw (Galium aparine)
Excerpt: as §1, §2

[5] = tested on: velvetleaf (Abutilon theophrasti)
Excerpt: as §1, §2

[6] = tested on: momingglory (Ipomoea hederacea)
Excerpt: as §1, §2

rape (Brassica napus) = tested on: rape (Brassica napus)
Excerpt: as §1, §2

[7] = tested on: blackgrass (Alopecurus myosuroides)
Excerpt: as §1, §2

[8] = tested on: pigweed (Amaranthus retroflexus)
Excerpt: as §1, §2

soybean (Glycine max) = tested on: soybean (Glycine max)
Excerpt: as §1, §2

[9] = tested on: cocklebur (Xanthium strumarium)
Excerpt: as §1, §2

corn (Zea mays) = tested on: corn (Zea mays)
Excerpt: as §1, §2

[10] = tested on: crabgrass (Digitaria sanguinalis)
Excerpt: as §1, §2

[11] = tested on: broadleaf signalgrass (Brachiaria decumbens)
Excerpt: as §1, §2

[12] = tested on: sugar beet (Beta vulgaris)
Excerpt: as §1, §2

wild oat (Avena fatua) = tested on: wild oat (Avena fatua)
Excerpt: as §1, §2

## Cc1cnc(-c2ccc(C(F)(F)F)cc2)nc1Cn1cnc(C(F)(F)F)n1 [Compound 11]
[1]; Rate 62 g/ha, Postemergence
  Plant response rating, Giant foxtail: 2
[1]; Rate 62 g/ha, Preemergence
  Giant foxtail plant response rating: 6
[1]; Rate 125 g/ha, Postemergence
  Plant response rating, Giant foxtail: 4
[1]; Rate 125 g/ha, Preemergence
  Giant foxtail plant response rating: 9
[1]; Rate 250 g/ha, Postemergence
  Plant response rating, Giant foxtail: 5
[1]; Rate 250 g/ha, Preemergence
  Plant response rating, Giant foxtail: 9
[1]; Rate 500 g/ha, Postemergence
  Plant response rating, Giant foxtail: 9
[1]; Rate 500 g/ha, Preemergence
  Plant response rating, Giant foxtail: 10
[2]; Rate 62 g/ha, Postemergence
  Plant response rating, Nutsedge: 1
[2]; Rate 125 g/ha, Postemergence
  Plant response rating, Nutsedge: 1
[2]; Rate 125 g/ha, Preemergence
  Nutsedge plant response rating: 0
[2]; Rate 250 g/ha, Postemergence
  Plant response rating, Nutsedge: 1
[2]; Rate 250 g/ha, Preemergence
  Plant response rating, Nutsedge: 0
[2]; Rate 500 g/ha, Preemergence
  Plant response rating, Nutsedge: 1
[3]; Rate 62 g/ha, Postemergence
  Plant response rating, Wheat: 2
[3]; Rate 62 g/ha, Preemergence
  Wheat plant response rating: 0
[3]; Rate 125 g/ha, Postemergence
  Plant response rating, Wheat: 2
[3]; Rate 125 g/ha, Preemergence
  Wheat plant response rating: 1
[3]; Rate 250 g/ha, Postemergence
  Plant response rating, Wheat: 3
[3]; Rate 250 g/ha, Preemergence
  Plant response rating, Wheat: 1
[3]; Rate 500 g/ha, Postemergence
  Plant response rating, Wheat: 3
[3]; Rate 500 g/ha, Preemergence
  Plant response rating, Wheat: 3
[4]; Rate 62 g/ha, Postemergence
  Plant response rating, Bedstraw: 8
[4]; Rate 62 g/ha, Preemergence
  Bedstraw plant response rating: 5
[4]; Rate 125 g/ha, Postemergence
  Plant response rating, Bedstraw: 9
[4]; Rate 125 g/ha, Preemergence
  Bedstraw plant response rating: 8
[4]; Rate 250 g/ha, Postemergence
  Plant response rating, Bedstraw: 10
[4]; Rate 250 g/ha, Preemergence
  Plant response rating, Bedstraw: 9
[4]; Rate 500 g/ha, Postemergence
  Plant response rating, Bedstraw: 10
[4]; Rate 500 g/ha, Preemergence
  Plant response rating, Bedstraw: 9
[5]; Rate 62 g/ha, Postemergence
  Plant response rating, Velvetleaf: 8
[5]; Rate 62 g/ha, Preemergence
  Velvetleaf plant response rating: 3
[5]; Rate 125 g/ha, Postemergence
  Plant response rating, Velvetleaf: 8
[5]; Rate 125 g/ha, Preemergence
  Velvetleaf plant response rating: 6
[5]; Rate 250 g/ha, Postemergence
  Plant response rating, Velvetleaf: 8
[5]; Rate 250 g/ha, Preemergence
  Plant response rating, Velvetleaf: 8
[5]; Rate 500 g/ha, Postemergence
  Plant response rating, Velvetleaf: 9
[5]; Rate 500 g/ha, Preemergence
  Plant response rating, Velvetleaf: 10
[6]; Rate 62 g/ha, Postemergence
  Plant response rating, Morningglory: 7
[6]; Rate 62 g/ha, Preemergence
  Morningglory plant response rating: 3
[6]; Rate 125 g/ha, Postemergence
  Plant response rating, Morningglory: 10
[6]; Rate 125 g/ha, Preemergence
  Morningglory plant response rating: 8
[6]; Rate 250 g/ha, Postemergence
  Plant response rating, Morningglory: 10
[6]; Rate 250 g/ha, Preemergence
  Plant response rating, Morningglory: 9
[6]; Rate 500 g/ha, Preemergence
  Plant response rating, Morningglory: 10
Rape (Brassica napus); Rate 62 g/ha, Postemergence
  Plant response rating, Rape: 9
Rape (Brassica napus); Rate 62 g/ha, Preemergence
  Rape plant response rating: 9
Rape (Brassica napus); Rate 125 g/ha, Postemergence
  Plant response rating, Rape: 9
Rape (Brassica napus); Rate 125 g/ha, Preemergence
  Rape plant response rating: 9
Rape (Brassica napus); Rate 250 g/ha, Postemergence
  Plant response rating, Rape: 10
Rape (Brassica napus); Rate 250 g/ha, Preemergence
  Plant response rating, Rape: 10
Rape (Brassica napus); Rate 500 g/ha, Postemergence
  Plant response rating, Rape: 10
Rape (Brassica napus); Rate 500 g/ha, Preemergence
  Plant response rating, Rape: 10
[7]; Rate 62 g/ha, Postemergence
  Plant response rating, Blackgrass: 2
[7]; Rate 62 g/ha, Preemergence
  Blackgrass plant response rating: 3
[7]; Rate 125 g/ha, Postemergence
  Plant response rating, Blackgrass: 3
[7]; Rate 125 g/ha, Preemergence
  Blackgrass plant response rating: 3
[7]; Rate 250 g/ha, Postemergence
  Plant response rating, Blackgrass: 7
[7]; Rate 250 g/ha, Preemergence
  Plant response rating, Blackgrass: 5
[7]; Rate 500 g/ha, Postemergence
  Plant response rating, Blackgrass: 5
[7]; Rate 500 g/ha, Preemergence
  Plant response rating, Blackgrass: 5
[8]; Rate 62 g/ha, Postemergence
  Plant response rating, Redroot pigweed: 9
[8]; Rate 62 g/ha, Preemergence
  Redroot pigweed plant response rating: 9
[8]; Rate 125 g/ha, Postemergence
  Plant response rating, Redroot pigweed: 10
[8]; Rate 125 g/ha, Preemergence
  Redroot pigweed plant response rating: 9
[8]; Rate 250 g/ha, Postemergence
  Plant response rating, Redroot pigweed: 10
[8]; Rate 250 g/ha, Preemergence
  Plant response rating, Redroot pigweed: 10
[8]; Rate 500 g/ha, Postemergence
  Plant response rating, Redroot pigweed: 10
[8]; Rate 500 g/ha, Preemergence
  Plant response rating, Redroot pigweed: 10
Soybean (Glycine max); Rate 62 g/ha, Postemergence
  Plant response rating, Soybean: 5
Soybean (Glycine max); Rate 62 g/ha, Preemergence
  Soybean plant response rating: 1
Soybean (Glycine max); Rate 125 g/ha, Postemergence
  Plant response rating, Soybean: 7
Soybean (Glycine max); Rate 125 g/ha, Preemergence
  Soybean plant response rating: 1
Soybean (Glycine max); Rate 250 g/ha, Postemergence
  Plant response rating, Soybean: 8
Soybean (Glycine max); Rate 250 g/ha, Preemergence
  Plant response rating, Soybean: 1
Soybean (Glycine max); Rate 500 g/ha, Postemergence
  Plant response rating, Soybean: 9
Soybean (Glycine max); Rate 500 g/ha, Preemergence
  Plant response rating, Soybean: 2
[9]; Rate 62 g/ha, Postemergence
  Plant response rating, Cocklebur: 7
[9]; Rate 62 g/ha, Preemergence
  Cocklebur plant response rating: 0
[9]; Rate 125 g/ha, Postemergence
  Plant response rating, Cocklebur: 8
[9]; Rate 250 g/ha, Postemergence
  Plant response rating, Cocklebur: 9
[9]; Rate 250 g/ha, Preemergence
  Plant response rating, Cocklebur: 3
[9]; Rate 500 g/ha, Postemergence
  Plant response rating, Cocklebur: 9
Corn (Zea mays); Rate 62 g/ha, Postemergence
  Plant response rating, Corn: 3
Corn (Zea mays); Rate 62 g/ha, Preemergence
  Corn plant response rating: 0
Corn (Zea mays); Rate 125 g/ha, Postemergence
  Plant response rating, Corn: 3
Corn (Zea mays); Rate 125 g/ha, Preemergence
  Corn plant response rating: 0
Corn (Zea mays); Rate 250 g/ha, Postemergence
  Plant response rating, Corn: 3
Corn (Zea mays); Rate 250 g/ha, Preemergence
  Plant response rating, Corn: 0
Corn (Zea mays); Rate 500 g/ha, Postemergence
  Plant response rating, Corn: 3
Corn (Zea mays); Rate 500 g/ha, Preemergence
  Plant response rating, Corn: 0
[10]; Rate 62 g/ha, Postemergence
  Plant response rating, Crabgrass: 2
[10]; Rate 62 g/ha, Preemergence
  Crabgrass plant response rating: 7
[10]; Rate 125 g/ha, Postemergence
  Plant response rating, Crabgrass: 4
[10]; Rate 125 g/ha, Preemergence
  Crabgrass plant response rating: 7
[10]; Rate 250 g/ha, Postemergence
  Plant response rating, Crabgrass: 6
[10]; Rate 250 g/ha, Preemergence
  Plant response rating, Crabgrass: 9
[10]; Rate 500 g/ha, Postemergence
  Plant response rating, Crabgrass: 7
[10]; Rate 500 g/ha, Preemergence
  Plant response rating, Crabgrass: 10
[11]; Rate 62 g/ha, Postemergence
  Plant response rating, B. signalgrass: 3
[11]; Rate 62 g/ha, Preemergence
  B. signalgrass plant response rating: 2
[11]; Rate 125 g/ha, Postemergence
  Plant response rating, B. signalgrass: 3
[11]; Rate 125 g/ha, Preemergence
  B. signalgrass plant response rating: 3
[11]; Rate 250 g/ha, Postemergence
  Plant response rating, B. signalgrass: 4
[11]; Rate 250 g/ha, Preemergence
  Plant response rating, B. signalgrass: 8
[11]; Rate 500 g/ha, Postemergence
  Plant response rating, B. signalgrass: 7
[11]; Rate 500 g/ha, Preemergence
  Plant response rating, B. signalgrass: 8
[12]; Rate 62 g/ha, Postemergence
  Plant response rating, Sugarbeets: 9
[12]; Rate 62 g/ha, Preemergence
  Sugarbeets plant response rating: 10
[12]; Rate 125 g/ha, Postemergence
  Plant response rating, Sugarbeets: 10
[12]; Rate 125 g/ha, Preemergence
  Sugarbeets plant response rating: 10
[12]; Rate 250 g/ha, Postemergence
  Plant response rating, Sugarbeets: 10
[12]; Rate 250 g/ha, Preemergence
  Plant response rating, Sugarbeets: 10
[12]; Rate 500 g/ha, Postemergence
  Plant response rating, Sugarbeets: 10
[12]; Rate 500 g/ha, Preemergence
  Plant response rating, Sugarbeets: 10
Wild oat (Avena fatua); Rate 62 g/ha, Postemergence
  Plant response rating, Wild oats: 2
Wild oat (Avena fatua); Rate 62 g/ha, Preemergence
  Wild oats plant response rating: 2
Wild oat (Avena fatua); Rate 125 g/ha, Postemergence
  Plant response rating, Wild oats: 3
Wild oat (Avena fatua); Rate 125 g/ha, Preemergence
  Wild oats plant response rating: 4
Wild oat (Avena fatua); Rate 250 g/ha, Postemergence
  Plant response rating, Wild oats: 3
Wild oat (Avena fatua); Rate 250 g/ha, Preemergence
  Plant response rating, Wild oats: 4
Wild oat (Avena fatua); Rate 500 g/ha, Postemergence
  Plant response rating, Wild oats: 5
Wild oat (Avena fatua); Rate 500 g/ha, Preemergence
  Plant response rating, Wild oats: 6

Source: patent US6525001B1, “Substituted pyrimidine and pyridine herbicides” (Mid-American Commercialization Corporation, priority 1997, dated 2003)
